Measured values taken from ChEMBL document CHEMBL5726787, “Compounds, compositions and methods” (2018).

Biological target: T1, Receptor-interacting serine/threonine-protein kinase 1 (Homo sapiens, UniProt Q13546)
T1 sequence (Q13546 whole entry): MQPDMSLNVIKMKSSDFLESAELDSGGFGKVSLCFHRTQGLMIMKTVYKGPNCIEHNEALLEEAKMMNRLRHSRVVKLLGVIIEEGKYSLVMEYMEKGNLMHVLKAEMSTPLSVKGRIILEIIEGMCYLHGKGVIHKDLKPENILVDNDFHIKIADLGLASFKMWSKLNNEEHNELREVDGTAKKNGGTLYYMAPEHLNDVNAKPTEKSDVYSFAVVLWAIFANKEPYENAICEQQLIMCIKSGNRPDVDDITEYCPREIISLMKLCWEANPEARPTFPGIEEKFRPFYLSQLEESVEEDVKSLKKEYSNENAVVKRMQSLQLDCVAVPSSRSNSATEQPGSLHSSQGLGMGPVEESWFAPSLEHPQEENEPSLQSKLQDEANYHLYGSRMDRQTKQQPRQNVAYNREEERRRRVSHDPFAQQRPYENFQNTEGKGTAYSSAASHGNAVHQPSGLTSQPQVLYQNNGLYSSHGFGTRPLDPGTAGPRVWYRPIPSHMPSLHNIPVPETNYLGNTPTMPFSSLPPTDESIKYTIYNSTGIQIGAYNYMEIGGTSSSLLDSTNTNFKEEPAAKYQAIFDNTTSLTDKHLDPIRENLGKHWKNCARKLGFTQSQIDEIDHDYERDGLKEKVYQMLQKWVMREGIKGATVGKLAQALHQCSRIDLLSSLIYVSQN
Test: […]: Test compounds were diluted in DMSO and 0.1 μL of solution was dispensed to each well of a 384-well white solid microplate. The assay buffer was 50 mM HEPES pH 7.5, 50 mM NaCl, 30 mM MgCl2. The buffer was supplemented with 0.02% CHAPS, 0.01% of Pluronic F127, 0.1 mg/mL BSA and 1 mM DTT. MnCl2, 5 mM, was included in the assay buffer on the day of the experiment. […] 5 μL of enzyme and 5 μL of ATP were added to the plate at twice the final assay concentration and incubated at room temperature for 3 hours. Following this reaction, 10 μL of ADP-Glo reagent (Promega) was added to each well and incubated for 40 min at room temperature. This stops the kinase reaction and depletes any remaining ATP. 20 μL of ADP-Glo detection reagent was then added to each well and incubated at room temperature for at least 15 minutes. The detection reagent converts ADP to ATP and introduces luciferase and luciferin to detect ATP. The luminescence is then measured with the Envision (PerkinElmer) plate reader. Test compound inhibition was expressed as percent inhibition of internal assay controls. For concentration response curves, normalized data is fit and IC50 determined using XL-fit (IDBS) for Excel. The IC50 were averaged to determine a mean value, for a minimum of two independent experiments.

| IC50 | Structure (SMILES) |
| --- | --- |
| 0.1 to 1000 nM | CN1C(=O)C(NC(=O)c2nnc(Cc3ccccc3)[nH]2)C[C@H](F)c2ccccc21 (some centres not stated) |
| 0.1 to 1000 nM | CN1C(=O)C(NC(=O)c2nnc(Cc3ccccc3)[nH]2)C[C@@H](F)c2ccccc21 (some centres not stated) |
